{
  "source": "patent EP2269600A1",
  "about": "“Treatment of sleep disorders using eplivanserin in COPD patients” (Sanofi-Aventis, priority 2009, dated 2011)",
  "key": {"[1]": {"test_system": "patients with mild to moderate COPD", "assay": "COPD phase I study: PSG (apnea/hypopnea episodes, sleep parameters)", "type": "in vivo", "conditions": "15 mg single dose", "method": "(§1) The primary objective of this phase I study was to evaluate the pharmacodynamic (PD) effects of eplivanserin 15 mg single dose versus placebo (P) on respiratory function measured by mean overnight oxygen saturation (SaO2) in patients with mild to moderate COPD. Recorded PD parameters were: • Pulse oximetry continuously recorded overnight, with 02 saturation in %, • Pulmonary function tests (PFTs): spirometry [measuring forced vital capacity (FVC), forced expiratory volume (FEV), peak […] flow rate (PEFR), forced […] flow (FEF)] and plethysmography [evaluating airways resistance and conductance], • Capillary blood gases, • PSG with apnea /hypopnea episodes, sleep global sleep parameters and sleep architecture, • Leeds Sleep Evaluation Questionnaire (LSEQ) and Bond & Lader VAS. Safety and pharmacokinetic parameters were also assessed.\n(§2) The study was a single-centre, double-blind, randomized, 2-way crossover, placebo-controlled crossover study with 14 day washout: 15 mg single-dose of eplivanserin (E) vs. placebo (P). Included patients were displaying mild to moderate chronic obstructive pulmonary disease (COPD). The primary end-point was the pulmonary function (02 saturation over the entire night). 28 evaluable patients have been evaluated (COPD severity (FEV1) 50% mild / 50% moderate; Gender: 46.4% M, 53.6% F)"}, "[2]": {"conditions": "cited from earlier work"}, "[3]": {"test_system": "patients with mild to moderate COPD", "assay": "COPD phase I study: safety and tolerability", "type": "in vivo", "conditions": "for safety / tolerability: 15 mg single dose, mild or moderate COPD", "method": "as §1, §2"}, "[4]": {"test_system": "patients with mild to moderate COPD", "assay": "COPD phase I study: plethysmography", "type": "in vivo", "method": "as §1, §2"}, "[5]": {"test_system": "patients with mild to moderate COPD", "assay": "COPD phase I study: capillary blood gases", "type": "in vivo", "conditions": "15 mg single dose", "method": "as §1, §2"}, "[6]": {"test_system": "patients with chronic (primary) insomnia characterized by sleep maintenance difficulties", "assay": "Phase 3 study EFC6220: polysomnography (PSG) recordings, 6 weeks, placebo-controlled", "type": "in vivo", "text": "(§3) The Phase 3 program of development of eplivanserin in the treatment of patients with chronic (primary) insomnia characterized by sleep maintenance difficulties consisted of 3 randomized, double-blind (DB), placebo-controlled, efficacy and safety studies designed to assess the efficacy of eplivanserin on sleep maintenance either using polysomnography (PSG) recordings (6-week study EFC6220) or patient-reported outcome (12-week studies LTE6217 and LTE6262) collected daily on sleep questionnaires. They were all double-blind (DB), randomized, placebo-controlled studies. In all studies, treatment period was preceded by a one week, placebo run-in period, designed to check selection criteria for insomnia based on patient reported sleep parameters collected on the daily sleep questionnaires (Studies LTE6217, and LTE6262) or based on PSG recordings during two screening nights in a sleep laboratory (Study EFC6220). Treatment period was followed by a placebo run-out period of 2 weeks designed to assess the effect of abrupt treatment discontinuation. Study EFC6220 was designed to measure the pharmacodynamic activity of eplivanserin on sleep maintenance using PSG recordings in a sleep laboratory. Polysomnograms were recorded in standard conditions during 8 hours in bed. Studies LTE6217 and LTE6262 measured the efficacy of eplivanserin in real life conditions of use at home by collecting daily sleep parameters reported by patients through an Interactive Voice Response System (IVRS)."}, "[7]": {"test_system": "patients with mild to moderate COPD", "assay": "COPD phase I study: overnight pulse oximetry (oxygen saturation)", "type": "in vivo", "method": "as §1, §2"}, "[8]": {"test_system": "patients with mild to moderate COPD", "assay": "COPD phase I study: spirometry", "type": "in vivo", "conditions": "Eplivanserin 15 mg single dose minus Placebo", "method": "as §1, §2"}, "[9]": {"test_system": "patients with chronic (primary) insomnia characterized by sleep maintenance difficulties", "assay": "Phase 3 studies LTE6217 and LTE6262: patient-reported sleep parameters, 12 weeks, placebo-controlled", "type": "in vivo", "text": "as §3"}, "[10]": {"test_system": "patients with mild to moderate COPD", "assay": "COPD phase I study: Leeds Sleep Evaluation Questionnaire and Bond & Lader VAS", "type": "in vivo", "conditions": "15 mg single dose", "method": "as §1, §2"}, "[11]": {"conditions": "5 mg/day, after 6 and 12 weeks of treatment"}},
  "data": [
    {"smiles": "CN(C)CCO/N=C(/C=C/c1ccc(O)cc1)c1ccccc1F", "note": "[Eplivanserin, (1Z, 2E)-1-(2-fluorophenyl)-3-(4-hydroxyphenyl)-prop-2-en-1-one-O-(2-dimethylaminoethyl)oxime]", "values": [
      {"measurement": "AHI (apnea hypopnea index)", "setting": "[1]", "result": "reduction"},
      {"measurement": "LPS (latency to persistent sleep)", "setting": "[1]", "result": "no change"},
      {"measurement": "TST (total sleep time)", "setting": "[1]", "result": "increase"},
      {"measurement": "WASO (waketime duration after sleep onset)", "setting": "[1]", "result": "reduction"},
      {"measurement": "number of awakenings after sleep onset", "setting": "[1]", "result": "reduction"},
      {"measurement": "half-life time", "setting": "[2]; average value", "result": 50, "unit": "h"},
      {"measurement": "absorbed", "setting": "[2]; human, in vivo", "result": "> 70", "unit": "%"},
      {"measurement": "safety / tolerability", "setting": "[3]", "result": "well tolerated"},
      {"measurement": "safety / tolerability", "setting": "[3]; listed as eplivanserin", "result": "no safety concern"},
      {"measurement": "impairment of respiratory function (SaO2%, spirometry, body plethysmography)", "setting": "[3]; oral single dose 15 mg, in comparison with placebo", "result": "no impairment of respiratory function was observed"},
      {"measurement": "airways resistance and conductance in each patient's subgroup (mild, moderate)", "setting": "[4]; 15 mg single dose vs placebo", "result": "no difference"},
      {"measurement": "Airways resistance, treatment difference LS mean", "setting": "[4]; Eplivanserin 15 mg single dose minus Placebo, P-value 0.4880", "result": 0.02, "unit": "KPa * s/l"},
      {"measurement": "Airways conductance, treatment difference LS mean", "setting": "[4]; Eplivanserin 15 mg single dose minus Placebo, P-value 0.6642", "result": "-0.01 1/KPa * s"},
      {"measurement": "Capillary blood gases (pH, oxygen partial pressure)", "setting": "[5]", "result": "minimally or unaffected"},
      {"measurement": "Stage 1", "setting": "[6]; 5 mg/day compared with placebo", "result": "decrease of Stage 1"},
      {"measurement": "percentage of time spent in sleep Stages 3&4 (SWS or deep sleep)", "setting": "[6]; 5 mg/day compared with placebo", "result": "increased"},
      {"measurement": "PSG-WASO", "setting": "[6]; Week 3 and Week 6, difference with placebo not statistically significant at Week 6", "result": "decreasing PSG-WASO at Week 3 and Week 6"},
      {"measurement": "number of brief awakenings (<1 min)", "setting": "[6]; compared to placebo", "result": "decreased"},
      {"measurement": "sleep onset (PSG-LPS and pr-SOL)", "setting": "[6]; eplivanserin 5 mg", "result": "did not affect sleep onset"},
      {"measurement": "PSG-NAW (LS mean)", "setting": "[6]; eplivanserin 5 mg, Week 3, p<0.0001", "result": -1.74},
      {"measurement": "pr-NAW", "setting": "[6]; eplivanserin 5 mg, Week 3 and Week 6", "result": "decrease of pr-NAW"},
      {"measurement": "PSG-NAW (LS mean)", "setting": "[6]; eplivanserin 5 mg, Week 6, p<0.0001", "result": -1.82},
      {"measurement": "QoS", "setting": "[6]; in vivo", "result": "improved"},
      {"measurement": "REM sleep", "setting": "[6]; in vivo", "result": "not affected"},
      {"measurement": "SWS/WASO + Stage 1 index", "setting": "[6]; in vivo", "result": "increase"},
      {"measurement": "SaO2 (%) during Time in bed, treatment difference LS mean", "setting": "[7]; Eplivanserin 15 mg single dose minus Placebo, P-value 0.2499", "result": -0.30, "unit": "%"},
      {"measurement": "Mean oxygen saturation over the entire night (mean ± SD)", "setting": "[7]; eplivanserin 15 mg single dose, finger pulse oximetry", "result": "93.4 % ± 1.66"},
      {"measurement": "SaO2 (%) during the sleep stages (stage 1, 2, SWS, REM, wake)", "setting": "[7]; single dose 15 mg vs placebo", "result": "no effect"},
      {"measurement": "Forced vital capacity, treatment difference LS mean", "setting": "[8]; P-value 0.1411", "result": -0.12, "unit": "L"},
      {"measurement": "Forced expiratory volume, treatment difference LS mean", "setting": "[8]; P-value 0.5289", "result": -0.03, "unit": "L"},
      {"measurement": "Peak expiratory flow, treatment difference LS mean", "setting": "[8]; P-value 0.6683", "result": -0.05, "unit": "L/S"},
      {"measurement": "effect on sleep maintenance (pr-WASO), onset and persistence", "setting": "[9]; 5 mg/day", "result": "observed from Day 1 and persisted up to 1 year of treatment"},
      {"measurement": "mean pr-NAW", "setting": "[9]; [11]", "result": "reducing"},
      {"measurement": "pr-TST", "setting": "[9]; [11]", "result": "increasing"},
      {"measurement": "pr-WASO", "setting": "[9]; [11]", "result": "consistently and significantly decreasing"},
      {"measurement": "Quality of Sleep and Refreshing Quality of Sleep", "setting": "[9]; after 6 and 12 weeks of treatment", "result": "improved"},
      {"measurement": "\"sleepiness in the morning\" and \"ability to concentrate\"", "setting": "[9]; compared with placebo, reported by insomniac patients", "result": "significantly favorable effect"},
      {"measurement": "sleep onset", "setting": "[9]; human, in vivo", "result": "did not affect sleep onset"},
      {"measurement": "potential for residual effects (next-day impairment)", "setting": "[9]; safety analyses", "result": "devoid of next-day impairment"},
      {"measurement": "LSEQ and Bond & Lader VAS post-treatment scores vs baseline", "setting": "[10]", "result": "minimally or unaffected"}
    ]}
  ]
}
